From patent publication US20040152994A1, “Liver function test” (priority 2001, published 2004)

System: hepatic glycine conjugation
Conditions: in vivo
Protocol: The test is carried out in the morning on an empty stomach after an overnight fast.
To equilibrate the body's glycine pool, an oral bolus of 3 g of glycine dissolved in 200 ml of water is given 1 hour prior to tracer administration.
At t=0 min, a weight adjusted dose of [^13C−1]-glycine (eg. 150 mg for 44.5 to 95.2 kg body weight) was given orally. Breath samples are taken subsequently every 10 minutes over a period of 300 minutes.
At t=160 min, a second dose of [^13C−1]-glycine was given, followed by three equal dozes of sodium benzoate (eg. 284.2 mg) at 170, 180 and 190 minutes.
Breath samples are measured for ^13CO2 content above base line, ie. the mean of 3 pre-test samples. Time to peak of ^13CO2 exhalation, ^13CO2 exhalation in percentage of given dose [% dose/hour] and cumulative ^13CO2 exhalation over time are determined. Mathematical modelling of the various curves is used to de-convolute the dose recovery curves of parts A and B.
The breath test consisted of two parts, A and B, that were at first carried out on 2 consecutive days and later combined into an one-day protocol.
Part A; After an overnight fast, subjects were given orally a weight adjusted dose of the tracer ^13C-glycine dissolved in water
Part B: After an, overnight fast, subjects were given orally the same amount of tracer plus an optimised amount of sodium benzoate.
For the one-day protocol, part B commenced 130 min after the start of part A.
Breath samples were collected in 10 min intervals.
10 volunteers (5 women, 5 men) with no medical history of liver problems were used as control group.
9 in-patients (6 women, 3 men) with varying stages of liver failure and different disease etiology were tested. Ethical approval for this ^13CO2-breath test, study was sought and obtained from the Tayside Healthboard Ethics Committee.

Time to peak PDR in patients compared to the control group: significantly delayed
highest GCa-value (apparent glycine conjugation) in patients: 23.26%
mean PDRm ratio: 0.59
Compound: NC[13C](=O)O [^13C-glycine, [^13C−1]-glycine]
